Tests used:
[1] = system: healthy donor T cells (PBMCs) and NK cells; experiment: CFSE proliferation assay with exogenous adenosine; format: cell-based, human; conditions: exogenous adenosine 0.1 mM, antagonist 12 µM, 3 days (T) and 6 days (NK)
Protocol: Freshly isolated PBMCs and NK cells were stained with 5 µM FITC-conjugated carboxyfluorescein succinimidyl ester (CFSE, BioLegend) in phosphate-buffered saline (PBS) (Life Technologies) at room temperature for 5 min. CSFE stained cells were washed with flow cytometer buffer three times. CSFE-labeled healthy PBMCs and NK cells were cultured in 96-well plates with X-VIVO20% and 1% PS for 3 and 6 days, respectively. Healthy PBMCs were incubated with Human T-activator CD3/CD28 beads at 1:4 ratio (Thermo Fisher Scientific) and IL-2 (Novartis) at 100 IU/mL. Healthy donor NK cells were incubated with 1000 IU/mL IL-2 only. 2×10^5 PBMCs and 5×10^4 NK cells were counted for treatment with ADO (Sigma-Aldrich) and 12 μM of A2BAR antagonist at the same day.
Figure 3 Rescue of lymphocyte proliferation by of A2BAR antagonism. Relative proliferation of: (A) CD45RA- CD4 T cells, (B) CD45RA+ CD4 T cells, (C) CD45RA- CD8 T cells, (D) CD45RA+ CD8 T cells, and (E) NK cells, after incubation with exogenous adenosine 0.1 mM and A2BAR antagonist 12 µM for 3 (A–D) and 6 (E) days. (n=10 healthy donors) CD45RA expression differentiates naïve and effector T cells from central and effector memory T cells. Box plots with minimum, first quartile, median, third quartile, and maximum are presented. Unpaired and non-parametric statistical analysis—Mann-Whitney test was performed against untreated control with *p<0.05, **p<0.01, ***p<0.001, and ****p<0.0001. (F–J) Representative CFSE histogram on the corresponding lymphocyte subset. CFSE, carboxyfluorescein succinimidyl ester.

[2] = system: autologous TILs and patient-derived sarcoma spheroids; experiment: Spheroid infiltration by autologous TILs (real-time imaging and flow cytometry); format: cell-based, human; conditions: antagonist 12 µM, 3 days, n=8 donors, not statistically significant
Protocol: Spheroids were prepared using patient-derived sarcoma cell lines. 1×10^4 cells were seeded per well in 96-well ultra-low attachment plate with DMEM-F12 media containing 20% FBS and 1% PS for 5 days. 3×10^4 CSFE-labeled autologous expanded TILs, at Effector:target ratio of 3:1, were added to the spheroid at day five with A2BAR antagonism treatment at 12 µM. After 3 days, spheroid was removed and split into two groups—IN and OUT. […] Spheroids were washed with PBS at least two times. GentleMACS tumor dissociation kit (Miltenyi Biotec) was used to digest the spheroids for FC analysis.
Brightfield and phase contrast images under 4X objective were acquired every 6 hours on IncuCyte S3 system (Essen BioScience). For breast cancer patient-derived spheroid culture, 1×10^4 cells per well were seeded with A2BAR antagonist at 12 µM treatment for 6 days real time imaging. For spheroid infiltration, after the addition of CSFE-labeled autologous expanded TILs and treatment with A2BAR antagonist at 12 µM, green fluorescence images were acquired for 3 days. All spheroid invasion analysis was performed using top hat segmentation with IncuCyte software.
Cell surface was stained with mouse monoclonal antihuman antibodies against CD3, CD4, CD8, CD45RA, CD56 and CD19 listed in online supplemental table 1. Cell surface antibodies and live/dead (L/D) marker were incubated with samples at 4°C for 20 min after washing two times with flow cytometry buffer containing 5% FBS in PBS. For spheroid infiltrated TIL phenotyping, digested IN and OUT spheroids were stained with cell surface marker and analyzed on NovoCyte (ACEA Bioscience) with the use of FlowJo software (Tree Star) by gating single cell based on forward and side scatters. A representative gating strategy for CD8 naïve T cells is shown in online supplemental figure 3A. Compensated flow cytometry standard (FCS) files with only live cells were concatenated for downstream tSNE analysis using the ‘cytofkit’ R package (https://github.com/JinmiaoChenLab/cytofkit).
Figure 6 Infiltration of TILs into autologous patient-derived sarcoma spheroids after A2BAR antagonist treatment. (A) Representative real-time imaging of spheroid TIL infiltration over 3 days under 4× objective. Green areas demarcate CFSE-labeled TILs infiltrated into the red boundary tumor spheroid. (B) Relative TIL infiltration into autologous spheroids (n=8 donors) measured by flow cytometer. Antagonist 12 µM was added with CSFE-labeled TILs after spheroid formation on day five. (C) Representative flow cytometry plot of CFSE positive TILs in CD73+ tumor spheroid. (D) tSNE analysis and (E) annotated pie chart of TILs within (IN) and outside of (OUT) the spheroids without treatment (n=8 donors, indicated within the pie chart). Wilcoxon Rank Sum test was performed to compare the various IN vs OUT adhesion markers. Expression of (F) CD3 T cells, (G) CD49a+ CD103+ among CD8 T cells and (H) CD69 MFI among CD4 T cells IN and OUT of the spheroids without treatment (n=8 donors). (I) Relative CD8/CD4 TIL ratio IN the spheroids. Differential expression of relative (J–L). CD49a+ CD103+ cells IN the spheroids (n=8 donors) of CD3, CD8, and CD4 TILs. Antagonist 12 µM was added for J–L. Outlier is presented as diamond shape and defined by Tukey’s rule, which is not included in statistical analysis. Box plots with minimum, first quartile, median, third quartile, and maximum are presented. Unpaired and non-parametric statistical analysis—Mann-Whitney test was performed against untreated control with *p<0.05, **p<0.01, ***p<0.001, and ****p<0.0001. CFSE, carboxyfluorescein succinimidyl ester; TIL, tumor infiltrating lymphocyte; tSNE, T-distributed stochastic neighboring embedding. TEXT PRINTED IN THE PICTURE: (C) ISAM-R56A: TILs 13.0 DOUBTS OF THE COPYIST ABOUT THIS PICTURE: Panel C, ISAM-R56A, TILs: the print is small, 13.0 could be 13.8 or 13.6 / Panel C also prints a gate label 'TILs 3.17' for the Untreated control. […]

[3] = system: CD4 and CD8 T cells (healthy donor PBMCs); experiment: IFNy and perforin cytokine production assay, with CD69 expression (flow cytometry); format: cell-based, human; conditions: antagonist 12 µM, exogenous adenosine
Protocol: Similar experimental setup was performed as the extracellular ADO uptake assay. Cells were harvested after 2 days of CD3/CD28 bead stimulation before treatment with PMA/ionomycin (Sigma Aldrich) and golgi-inhibitors (BD biosciences). After 3 hours of subsequent incubation, intracellular staining was performed for IFNy and perforin (online supplemental table 1).
(§1) Figure 4 Rescue of lymphocyte proinflammatory cytokine production IFNy and perforin by A2BAR antagonism. (A,B) Inhibition of extracellular adenosine uptake via phosphorylated-AMP activated protein kinase (pAMPK) staining (n=7 healthy donors). Production of proinflammatory cytokines—(C,D) IFNy and (E) perforin in CD4 (n=5 healthy donors) and CD8 (n=6 healthy donors) T cells. Expression of CD69 adhesion molecule in (F). CD4 (n=7 healthy donors) and (G) CD8 (n=4 healthy donors) T cells. A2BAR antagonist 12 µM was added. Outlier is presented as diamond shape and defined by Tukey’s rule, which is not included in statistical analysis. Box plots with minimum, first quartile, median, third quartile, and maximum are presented. Normalized fold change is based on percent values compared with untreated controls. Unpaired and non-parametric statistical analysis—Mann-Whitney test was performed against untreated control with *p<0.05, **p<0.01, ***p<0.001, and ****p<0.0001.

[4] = system: healthy donor T cells in MPNST patient-derived sarcoma spheroid; experiment: Proliferation assay with CD73-expressing patient-derived sarcoma (MPNST) spheroid; format: cell-based, human; conditions: antagonist 12 µM, 3 days, endogenous adenosine, n=5 healthy donors
Protocol: A malignant peripheral nerve sheath tumor (MPNST) patient-derived sarcoma cell line was used to grow spheroid by seeding 1×10^4 cells per well in a 96-well ultra-low attachment plate (Thermo Fisher Scientific) with DMEM-F12 media containing 20% FBS and 1% PS for 5 days. 1×10^5 CSFE-labeled healthy PBMCs, ratio of 10:1, were added to the CD73 expressing, adenosine-producing spheroid at day five. Similar to the proliferation assay with exogenous ADO, CD3/CD28 beads at 1:4 ratio and IL-2 at 100 IU/mL were added. A2BAR antagonism treatment at 12 μM was added at the same day.
Figure 5 Rescue of lymphocyte proliferation in sarcoma spheroids by A2BAR antagonism. Relative proliferation of: (A) CD45RA- CD4 T cells, (B) CD45RA+CD4 T cells, (C) CD45RA- CD8 T cells and (D) CD45RA+ CD8 T cells after antagonist 12 µM treatment for 3 days in MPNST patient-derived sarcoma spheroid. (n=5 healthy donors) Box plots with minimum, first quartile, median, third quartile, and maximum are presented. Unpaired and non-parametric statistical analysis—Mann-Whitney test was performed against untreated control with *p<0.05, **p<0.01, ***p<0.001, and ****p<0.0001. (E) Representative CSFE dilution of CD45RA+ CD8 T cells. CD45RA expression differentiates naïve and effector T cells from central and effector memory T cells. MPNST, malignant peripheral nerve sheath tumors; UPS, undifferentiated pleomorphic sarcoma.

hA2B (A2BAR) = target: T1, hA2B (A2BAR) (Homo sapiens, UniProt P29275); experiment: cAMP assay, NECA-stimulated, HEK-293 cells with transfected A2BAR; format: cell-based; conditions: n=3, read-out: Kb hA2B (cAMP production)
T1 construct: expressed in transfected cells; host or cells: HEK-293
T1 sequence (P29275 1-332): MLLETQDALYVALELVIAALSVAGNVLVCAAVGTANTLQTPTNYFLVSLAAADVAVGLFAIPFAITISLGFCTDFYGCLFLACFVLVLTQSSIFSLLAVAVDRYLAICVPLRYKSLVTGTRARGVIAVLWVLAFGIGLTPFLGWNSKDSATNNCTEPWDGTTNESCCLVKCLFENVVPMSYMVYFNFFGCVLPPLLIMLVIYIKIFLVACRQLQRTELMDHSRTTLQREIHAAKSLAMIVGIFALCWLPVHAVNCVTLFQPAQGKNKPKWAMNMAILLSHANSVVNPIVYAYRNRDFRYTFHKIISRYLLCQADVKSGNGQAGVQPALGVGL
Protocol: Assays were performed in transfected A2BAR using a cyclic AMP (cAMP) enzyme immunoassay kit (Amersham Biosciences) following previously described protocols.[28 30] HEK-293 cells were seeded (10,000 cells/well) in 96-well culture plates and incubated at 37°C in an atmosphere with 5% CO2 in Eagle’s Medium Nutrient Mixture F-12 (EMEM F-12), containing 10% fetal calf serum (FCS) and 1% L-Glutamine. Cells were washed three times with 200 µL assay medium (EMEM-F12 and 25 mM HEPES pH=7.4) and pre-incubated with assay medium containing 30 µM rolipram and test compounds at 37°C for 15 min. Ten µM NECA was incubated for 15 min at 37°C (total incubation time 30 min). Reaction was stopped with lysis buffer supplied in the kit and the enzyme immunoassay was carried out for detection of intracellular cAMP at 450 nm in an Ultra Evolution detector (Tecan). The dose-response curve of NECA-elicited cAMP formation was used to determine the initial choice of A2BAR antagonist concentration (online supplemental figure 2).

[5] = system: pAMPK in CD4 and CD8 T cells; experiment: Extracellular ADO uptake assay via pAMPK staining; format: cell-based, human; conditions: antagonist 12 µM, 50 µM exogenous adenosine, n=7 healthy donors
Protocol: Experimental setup was adopted from a previous study whereby AR antagonist was added to pretreat cells before exogenous adenosine treatment for intracellular and cytokine staining.[37] In brief, PBMCs were treated with 12 µM of A2BAR antagonists for 90 min before the addition of 50 µM of adenosine for 2 hours. Cells were harvested after 3 hours of CD3/CD28 bead stimulation before intracellular staining with phosphor-AMPK (Thr183, Thr172) rabbit primary antibody (Thermo Fisher Scientific) and antirabbit secondary antibody (BD biosciences).
as §1

Structure (SMILES) | Rescue of lymphocyte (T and NK cell) proliferation [1] | Median increased TIL infiltration vs untreated [2] [%] | IFNy production by T cells on adenosine suppression (subset not given) [3] | Perforin production by CD8 T cells on adenosine suppression [3] | Rescue of naïve and effector (CD45RA+) CD8 T cell proliferation in adenosine-producing sarcoma spheroids [4] | Kb (hA2B (A2BAR)) [nM] | pAMPK (extracellular ADO uptake) in CD4 T cells [5]
Cc1cc(-c2nnc(N)nc2-c2ccc(F)cc2)cc(Cl)n1 [AZD-4635, reference compound] | did not restore the proliferation | 20 |  |  |  |  | 
CC1=C(C(=O)OC(C)C)C(c2ccco2)NC(=S)N1 (stereo not shown) [SY1AF-30] | None of the other A2BAR antagonists (SY1AF–30, SY1AF–80 and SY1KO–24) had any measurable impact |  | significantly improved | significantly improved | significantly rescued | 4.72 | 
CCOC(=O)C1=C(C)NC(=O)NC1c1ccsc1 (stereo not shown) [SY1AF-80] | None of the other A2BAR antagonists (SY1AF–30, SY1AF–80 and SY1KO–24) had any measurable impact |  |  |  | significantly rescued | 25.2 | significantly inhibited ADO uptake
CC1=C(C(=O)OC(C)C)C(c2ccco2)NC(=NC#N)N1 (stereo not shown) [SY1KO-24] | None of the other A2BAR antagonists (SY1AF–30, SY1AF–80 and SY1KO–24) had any measurable impact |  |  |  |  | 116 | 
